US10100076B2, “Modified nucleosides for the treatment of viral infections and abnormal cellular proliferation” (priority 2000, dated 2018)
Where two headings read alike, the source gives them in different places.

Tests used:
[1] = tested on: CEM cells; assay: cells; type: cell-based, human; details: for % inhibition at 100 μM, CEM Cells: four day incubation, MTT
Experimental: (§1) The cytotoxicity testing as performed herein is a standard technique. Briefly, cells are seeded in 96-well plates at various concentrations (dependent on cell type, duration of assay), typically at 5×10^3 cells per well, in the presence of increasing concentrations of the test compound (0, 1, 3, 10, 33, and 100 μM). After three (Vero cells), or four (CEM cells), or five (PBM cells) day-incubation, cell viability and mitochondrial activity are measured by adding the MTT-dye (Promega), followed by a 8 hours incubation. Afterwards the plates containing the dye are fixed by adding a stop-solution followed by another eight hour incubation. Finally, absorbance is read at 570 nm. Such methodologies are well described and available from the manufacturer (Promega).

[2] = tested on: PBM cells; assay: cells; type: cell-based, human; details: for % inhibition at 100 μM, PBM cells: five day incubation, MTT
Experimental: as §1

[3] = tested on: Vero cells; assay: cells; type: cell-based; details: for % inhibition at 100 μM, Vero Cells: three day incubation, MTT
Experimental: as §1

[4] = tested on: human malignant T and B cells and various tumor cell lines; assay: Toxicity profile against human malignant T and B cells and various tumor cell lines (MTT, IC50); type: cell-based; details: MTT assay, 3-5 days
Experimental: as §1, with “Cytotoxicity” for “The cytotoxicity”, “here are” for “herein is a”, “techniques.” for “technique.”, “Depending on the cell-type incubation with test compound can vary in time, but is usually within the range of 3 to 5 days. Cell” for “After three (Vero cells), or four (CEM cells), or five (PBM cells) day-incubation, cell”, “eight” for “a 8”, “hours of” for “hours”
In order to explore the complete potential of this compound, a set of human malignant T and B cells and various tumor cell lines were incubated with […] at varying concentrations, and after the absorbance was read, an IC50 value was calculated. As a control, Ara-C, 5FU, and cyclo-heximide was taken alongside (Table 26).

[5] = tested on: HCV replicon; assay: HCV replicon system in Huh7 cells, replicon RNA by Q-RT-PCR (HCV ΔCt, ΔΔCt); type: cell-based, hepatitis C virus; details: for Ave. ΔΔCt: HCV RNA ΔCt minus rRNA ΔCt; for Ave. HCV RNA ΔCt: HCV replicon in Huh7 cells; for average ΔΔCt: HCV RNA ΔCt minus rDNA ΔCt
[6] = tested on: rRNA (host RNA polymerase I product); assay: rRNA ΔCt in Huh7 replicon cells (effect on host RNA polymerases); details: Table 24, average of n
Source text: In a typical setting, a compound might reduce both the host RNA polymerase activity and the replicon-encoded polymerase activity. Therefore, quantification of rRNA (or any other host RNA polymerase I product) or beta-actin mRNA (or any other host RNA polymerase II) and comparison with RNA levels of the no-drug control is a relative measurement of the effect of the test compound on host RNA polymerases.
With the availability of both the HCV ΔCt data and the rRNA ΔCt, a specificity parameter can be introduced. This parameter is obtained by subtracting both ΔCt values from each other.

[7] = tested on: rDNA (host DNA); assay: rDNA ΔCt in Huh7 replicon cells (effect on cellular DNA polymerases); details: Table 25, average of N
Source text: In another typical setting, a compound might reduce the host RNA polymerase activity, but not the host DNA polymerase activity. Therefore, quantification of rDNA or beta-actin DNA (or any other host DNA fragment) and comparison with DNA levels of the no-drug control is a relative measurement of the inhibitory effect of the test compound on cellular DNA polymerases.
With the availability of both the HCV ΔCt data and the rDNA ΔCt, a specificity parameter can be introduced. This parameter is obtained by subtracting both ΔCt values from each other.

[8] = CEM (human T-cell lymphoma cell line), MTT assay, incubation 3-5 days, read-out: Toxicity IC50
[9] = PBM (human peripheral blood mononuclear cells), MTT assay, incubation 3-5 days, read-out: Toxicity IC50
[10] = Vero (African green monkey kidney cell line), MTT assay, incubation 3-5 days, read-out: Toxicity IC50

Structure (SMILES) | IC50 [1] [µM] | % inhibition at 100 μM, CEM Cells [1] [%] | IC50 [2] [µM] | % inhibition at 100 μM, PBM cells [2] [%] | IC50 [3] [µM] | % inhibition at 100 μM, Vero Cells [3] [%] | Ave. ΔΔCt ([5]; Table 24) | Ave. HCV RNA ΔCt ([5]; Table 24, average of n) | average ΔΔCt ([5]; Table 25) | Ave. HCV RNA ΔCt ([5]; Table 25, average of N) | Ave. rRNA ΔCt [6] | Ave. rDNA ΔCt [7] | other results
O=c1[nH]cc(F)c(=O)[nH]1 [5FU] |  |  |  |  |  |  |  |  |  |  |  |  | IC50 [1, 8]: 90.5 µM; IC50 [2, 9]: 13.7 µM; IC50 [3, 10]: 65 µM; IC50 ([4]; BL41 (human B-cell lymphoma cell line), read-out: Toxicity IC50): 24.1 µM; IC50 ([4]; H9 (human T-cell lymphoblast cell line), read-out: Toxicity IC50): 14.2 µM; IC50 ([4]; HEPG2 (human liver carcinoma cell line), read-out: Toxicity IC50): 40.6 µM; IC50 ([4]; JY (human B-cell lymphoma cell line, EBV transformed), read-out: Toxicity IC50): 7.5 µM; IC50 ([4]; LNCaP (human prostate adenocarcinoma cell line), read-out: Toxicity IC50): 22.1 µM; IC50 ([4]; MCF-7 (human breast carcinoma cell line), read-out: Toxicity IC50): 43.7 µM; IC50 ([4]; SK-MEL-28 (human melanoma cell line), read-out: Toxicity IC50): 11.2 µM; IC50 ([4]; SK-MES-1 (human lung squamous carcinoma cell line), read-out: Toxicity IC50): 13.1 µM; IC50 ([4]; SupT1 (human T-cell lymphoblast cell line), read-out: Toxicity IC50): 53.6 µM
Nc1ccn([C@@H]2O[C@H](CO)[C@@H](O)[C@@H]2O)c(=O)n1 [Ara-C, reference compound] |  |  |  |  |  |  |  |  |  |  |  |  | IC50 [1, 8]: 0.6 µM; IC50 [2, 9]: 7 µM; IC50 [3, 10]: 0.8 µM; IC50 ([4]; SUDHL-1 (human anaplastic large T-cell lymphoma cell line), read-out: Toxicity IC50): 3.7 µM
C[C@@H]1C[C@@H]([C@H](O)CC2CC(=O)NC(=O)C2)C(=O)[C@@H](C)C1 [cyclo-heximide] |  |  |  |  |  |  |  |  |  |  |  |  | IC50 ([1]; Homo sapiens, CCRF-CEM, read-out: Toxicity IC50): 0.1 µM; IC50 ([2]; Homo sapiens, PBMC, read-out: Toxicity IC50): 2.6 µM; IC50 ([3]; Chlorocebus sabaeus, Vero, read-out: Toxicity IC50): 2.1 µM; IC50 ([4]; Homo sapiens, B-cell, read-out: Toxicity IC50, H9 (human T-cell lymphoblast cell line)): 1 µM; IC50 ([4]; Homo sapiens, B-cell, read-out: Toxicity IC50, JY (human B-cell lymphoma cell line, EBV transformed)): 0.8 µM; IC50 ([4]; Homo sapiens, BL-41, read-out: Toxicity IC50, BL41 (human B-cell lymphoma cell line)): 0.3 µM; IC50 ([4]; Homo sapiens, HepG2, read-out: Toxicity IC50, HEPG2 (human liver carcinoma cell line)): 3.6 µM; IC50 ([4]; Homo sapiens, LNCaP, read-out: Toxicity IC50, LNCaP (human prostate adenocarcinoma cell line)): 2.4 µM; IC50 ([4]; Homo sapiens, MCF7, read-out: Toxicity IC50, MCF-7 (human breast carcinoma cell line)): 1.5 µM; IC50 ([4]; Homo sapiens, SK-MEL-28, read-out: Toxicity IC50, SK-MEL-28 (human melanoma cell line)): 1 µM; IC50 ([4]; Homo sapiens, SK-MES-1, read-out: Toxicity IC50, SK-MES-1 (human lung squamous carcinoma cell line)): 3.4 µM; IC50 ([4]; Homo sapiens, SU-DHL-1, read-out: Toxicity IC50, SUDHL-1 (human anaplastic large T-cell lymphoma cell line)): 0.3 µM; IC50 ([4]; Homo sapiens, SUP-T1, read-out: Toxicity IC50, SupT1 (human T-cell lymphoblast cell line)): 0.6 µM
O=c1[nH]c(=O)n([C@@H]2C[C@H](CO)[C@@H](O)[C@H]2O)cc1F [β-D-GF] | > 100 | 11.2 | > 100 | −46.2 | > 100 | 4.3 |  |  |  |  |  |  | 
Nc1nc(=O)c([C@@H]2O[C@H](CO)[C@@H](O)[C@H]2O)c[nH]1 [β-D-RB] |  |  |  |  |  |  | 1.12 | 4.30 | 2.74 | 4.00 | 3.18 | 1.27 | 
N=c1nc2c(c[nH]1)[C@@H]1O[C@H](CO)[C@@H](O)[C@@H]1O2 [β-D-TA] |  |  |  |  |  |  | 0.69 | 4.00 | 0.93 | 4.00 | 3.31 | 3.07 | 
Nc1ncnc2c([C@@H]3O[C@H](CO)[C@@H](O)[C@H]3O)cnn12 [β-D-UA] |  |  |  |  |  |  | 1.3 | 2.91 | 2.41 | 2.91 | 1.61 | 0.50 | 
Nc1nc(F)nc2c1ncn2[C@@H]1C=C[C@H](CO)O1 [β-L-FC] |  |  |  |  |  |  | 0.42 | 5.55 | 3.41 | 4.41 | 5.13 | 1.00 | 
Nc1nc(=O)n([C@H]2C[C@@H](CO)[C@H](O)[C@@H]2O)cc1F [β-L-GA] | > 100 | 1.1 | > 100 | −113.2 | > 100 | 27.9 |  |  |  |  |  |  | 
O=c1ccn([C@@H]2CC[C@H](CO)C2)c(=O)[nH]1 [β-L-GC] | > 100 | −1.2 | > 100 | −53.2 | > 100 | −13.4 |  |  |  |  |  |  | 
Nc1ccn([C@H]2C[C@@H](CO)[C@H](O)[C@@H]2O)c(=O)n1 [β-L-GD] | > 100 | −79.7 | > 100 | −12.9 | > 100 | 0.8 |  |  |  |  |  |  | 
Nc1ccn(C2CCC(CO)C2)c(=O)n1 [β-L-GE] | > 100 | 0.0 | > 100 | −59.7 | > 100 | 10.6 |  |  |  |  |  |  | 
O=c1[nH]c(=O)n([C@H]2C[C@@H](CO)[C@H](O)[C@@H]2O)cc1F [β-L-GF] | > 100 | 35.1 | > 100 | −70.4 | > 100 | 33.8 |  |  |  |  |  |  | 
Nc1nc(=O)n([C@@H]2CC[C@H](CO)C2)cc1I [β-L-GG] | > 100 | 17.3 | > 100 | −34.6 | > 100 | 33.6 |  |  |  |  |  |  | 
Nc1nc(=O)n([C@H]2C[C@@H](CO)[C@H](O)[C@@H]2O)cc1I [β-L-GH] | > 100 | 19.7 | > 100 | −52.1 | > 100 | 27.0 |  |  |  |  |  |  | 
Nc1nc(=O)n([C@H]2C[C@@H](CO)[C@H](O)[C@@H]2O)cc1Cl [β-L-GI] | > 100 | 18.0 | > 100 | −47.8 | > 100 | 31.9 |  |  |  |  |  |  | 
Nc1nc(=O)n(C2CSC(CO)O2)cc1F [β-L-JB] |  |  |  |  |  |  | −0.90 | 3.65 | 2.45 | 3.65 | 4.55 | 1.20 | 
OC[C@@H]1O[C@H](n2cnc3c(Cl)ncnc32)CS1 [β-L-KA] |  |  |  |  |  |  | −0.74 | 4.10 | 3.69 | 4.10 | 4.84 | 0.42 | 
Nc1nc(F)nc2c1ncn2[C@@H]1CS[C@H](CO)O1 [β-L-KC] |  |  |  |  |  |  | −0.16 | 1.19 | 3.54 | 2.73 | 1.35 | −0.81 | 
